{"source": "patent US8192962B2", "about": "“Processes for detecting toxic substances” (Daikin Industries, Ltd., priority 2001, dated 2012)", "tested_on": "Detoxification protein genes", "test": "DNA chip mRNA expression in yeast, detoxification protein genes (Table 8)", "type": "cell-based, Saccharomyces cerevisiae S288C", "summary_of_the_method": "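S. cerevisiae S288C grown at 25° C in YPD were exposed in log phase for two hours to one toxic chemical at a growth-inhibiting, non-lethal concentration; untreated cells served as control. Poly(A) mRNA was reverse-transcribed with Cy3/Cy5-dUTP and hybridized to a whole-genome yeast DNA chip at 65° C for over 12 hours; values are fluorescence ratios versus untreated.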"}
{"smiles": "[Cl][Cd][Cl]", "note": "[(2), CdCl2]", "values": [{"measurement": "The level of expressed mRNA in the presence of chemical substance/The level of expressed mRNA in the absence of chemical substance", "setting": "yeast gene YBL064C", "result": 2.8}, {"measurement": "The level of expressed mRNA in the presence of chemical substance/The level of expressed mRNA in the absence of chemical substance", "setting": "yeast gene YBR008C", "result": 2.4}, {"measurement": "The level of expressed mRNA in the presence of chemical substance/The level of expressed mRNA in the absence of chemical substance", "setting": "yeast gene YBR145W", "result": 0.7}, {"measurement": "The level of expressed mRNA in the presence of chemical substance/The level of expressed mRNA in the absence of chemical substance", "setting": "yeast gene YBR244W", "result": 1.4}, {"measurement": "The level of expressed mRNA in the presence of chemical substance/The level of expressed mRNA in the absence of chemical substance", "setting": "yeast gene YBR293W", "result": 3.1}, {"measurement": "The level of expressed mRNA in the presence of chemical substance/The level of expressed mRNA in the absence of chemical substance", "setting": "yeast gene YCL035C", "result": 2.3}, {"measurement": "The level of expressed mRNA in the presence of chemical substance/The level of expressed mRNA in the absence of chemical substance", "setting": "yeast gene YCL069W", "result": 15.7}, {"measurement": "The level of expressed mRNA in the presence of chemical substance/The level of expressed mRNA in the absence of chemical substance", "setting": "yeast gene YCR083W", "result": 2.8}, {"measurement": "The level of expressed mRNA in the presence of chemical substance/The level of expressed mRNA in the absence of chemical substance", "setting": "yeast gene YDL100C", "result": 1.2}, {"measurement": "The level of expressed mRNA in the presence of chemical substance/The level of expressed mRNA in the absence of chemical substance", "setting": "yeast gene YDL168W", "result": 2.0}, {"measurement": "The level of expressed mRNA in the presence of chemical substance/The level of expressed mRNA in the absence of chemical substance", "setting": "yeast gene YDR256C", "result": 1.4}, {"measurement": "The level of expressed mRNA in the presence of chemical substance/The level of expressed mRNA in the absence of chemical substance", "setting": "yeast gene YDR453C", "result": 2.7}, {"measurement": "The level of expressed mRNA in the presence of chemical substance/The level of expressed mRNA in the absence of chemical substance", "setting": "yeast gene YDR513W", "result": 2.5}, {"measurement": "The level of expressed mRNA in the presence of chemical substance/The level of expressed mRNA in the absence of chemical substance", "setting": "yeast gene YDR538W", "result": 1.1}, {"measurement": "The level of expressed mRNA in the presence of chemical substance/The level of expressed mRNA in the absence of chemical substance", "setting": "yeast gene YEL027W", "result": 0.6}, {"measurement": "The level of expressed mRNA in the presence of chemical substance/The level of expressed mRNA in the absence of chemical substance", "setting": "yeast gene YEL065W", "result": 3.8}, {"measurement": "The level of expressed mRNA in the presence of chemical substance/The level of expressed mRNA in the absence of chemical substance", "setting": "yeast gene YER185W", "result": 3.1}, {"measurement": "The level of expressed mRNA in the presence of chemical substance/The level of expressed mRNA in the absence of chemical substance", "setting": "yeast gene YFL050C", "result": 1.0}, {"measurement": "The level of expressed mRNA in the presence of chemical substance/The level of expressed mRNA in the absence of chemical substance", "setting": "yeast gene YGL013C", "result": 1.2}, {"measurement": "The level of expressed mRNA in the presence of chemical substance/The level of expressed mRNA in the absence of chemical substance", "setting": "yeast gene YGL254W", "result": 1.1}, {"measurement": "The level of expressed mRNA in the presence of chemical substance/The level of expressed mRNA in the absence of chemical substance", "setting": "yeast gene YGR088W", "result": 1.2}, {"measurement": "The level of expressed mRNA in the presence of chemical substance/The level of expressed mRNA in the absence of chemical substance", "setting": "yeast gene YGR138C", "result": 1.6}, {"measurement": "The level of expressed mRNA in the presence of chemical substance/The level of expressed mRNA in the absence of chemical substance", "setting": "yeast gene YGR197C", "result": 2.4}, {"measurement": "The level of expressed mRNA in the presence of chemical substance/The level of expressed mRNA in the absence of chemical substance", "setting": "yeast gene YGR209C", "result": 3.1}, {"measurement": "The level of expressed mRNA in the presence of chemical substance/The level of expressed mRNA in the absence of chemical substance", "setting": "yeast gene YGR224W", "result": 1.2}, {"measurement": "The level of expressed mRNA in the presence of chemical substance/The level of expressed mRNA in the absence of chemical substance", "setting": "yeast gene YHL040C", "result": 4.4}, {"measurement": "The level of expressed mRNA in the presence of chemical substance/The level of expressed mRNA in the absence of chemical substance", "setting": "yeast gene YHL047C", "result": 4.4}, {"measurement": "The level of expressed mRNA in the presence of chemical substance/The level of expressed mRNA in the absence of chemical substance", "setting": "yeast gene YHR008C", "result": 6.9}, {"measurement": "The level of expressed mRNA in the presence of chemical substance/The level of expressed mRNA in the absence of chemical substance", "setting": "yeast gene YHR048W", "result": 1.4}, {"measurement": "The level of expressed mRNA in the presence of chemical substance/The level of expressed mRNA in the absence of chemical substance", "setting": "yeast gene YHR053C", "result": 2.1}, {"measurement": "The level of expressed mRNA in the presence of chemical substance/The level of expressed mRNA in the absence of chemical substance", "setting": "yeast gene YHR055C", "result": 1.8}, {"measurement": "The level of expressed mRNA in the presence of chemical substance/The level of expressed mRNA in the absence of chemical substance", "setting": "yeast gene YIR002C", "result": 1.1}, {"measurement": "The level of expressed mRNA in the presence of chemical substance/The level of expressed mRNA in the absence of chemical substance", "setting": "yeast gene YIR038C", "result": 3.5}, {"measurement": "The level of expressed mRNA in the presence of chemical substance/The level of expressed mRNA in the absence of chemical substance", "setting": "yeast gene YJL101C", "result": 1.9}, {"measurement": "The level of expressed mRNA in the presence of chemical substance/The level of expressed mRNA in the absence of chemical substance", "setting": "yeast gene YJR104C", "result": 1.8}, {"measurement": "The level of expressed mRNA in the presence of chemical substance/The level of expressed mRNA in the absence of chemical substance", "setting": "yeast gene YKL026C", "result": 2.0}, {"measurement": "The level of expressed mRNA in the presence of chemical substance/The level of expressed mRNA in the absence of chemical substance", "setting": "yeast gene YKL064W", "result": 0.9}, {"measurement": "The level of expressed mRNA in the presence of chemical substance/The level of expressed mRNA in the absence of chemical substance", "setting": "yeast gene YKR066C", "result": 1.4}, {"measurement": "The level of expressed mRNA in the presence of chemical substance/The level of expressed mRNA in the absence of chemical substance", "setting": "yeast gene YKR105C", "result": 0.9}, {"measurement": "The level of expressed mRNA in the presence of chemical substance/The level of expressed mRNA in the absence of chemical substance", "setting": "yeast gene YKR106W", "result": 0.8}, {"measurement": "The level of expressed mRNA in the presence of chemical substance/The level of expressed mRNA in the absence of chemical substance", "setting": "yeast gene YLL028W", "result": 0.9}, {"measurement": "The level of expressed mRNA in the presence of chemical substance/The level of expressed mRNA in the absence of chemical substance", "setting": "yeast gene YLL057C", "result": 59.9}, {"measurement": "The level of expressed mRNA in the presence of chemical substance/The level of expressed mRNA in the absence of chemical substance", "setting": "yeast gene YLL060C", "result": 4.2}, {"measurement": "The level of expressed mRNA in the presence of chemical substance/The level of expressed mRNA in the absence of chemical substance", "setting": "yeast gene YLR043C", "result": 1.4}, {"measurement": "The level of expressed mRNA in the presence of chemical substance/The level of expressed mRNA in the absence of chemical substance", "setting": "yeast gene YLR046C", "result": 1.7}, {"measurement": "The level of expressed mRNA in the presence of chemical substance/The level of expressed mRNA in the absence of chemical substance", "setting": "yeast gene YML028W", "result": 2.2}, {"measurement": "The level of expressed mRNA in the presence of chemical substance/The level of expressed mRNA in the absence of chemical substance", "setting": "yeast gene YML116W", "result": 1.3}, {"measurement": "The level of expressed mRNA in the presence of chemical substance/The level of expressed mRNA in the absence of chemical substance", "setting": "yeast gene YMR015C", "result": 0.7}, {"measurement": "The level of expressed mRNA in the presence of chemical substance/The level of expressed mRNA in the absence of chemical substance", "setting": "yeast gene YMR038C", "result": 1.7}, {"measurement": "The level of expressed mRNA in the presence of chemical substance/The level of expressed mRNA in the absence of chemical substance", "setting": "yeast gene YNL239W", "result": 2.4}, {"measurement": "The level of expressed mRNA in the presence of chemical substance/The level of expressed mRNA in the absence of chemical substance", "setting": "yeast gene YNL241C", "result": 2.5}, {"measurement": "The level of expressed mRNA in the presence of chemical substance/The level of expressed mRNA in the absence of chemical substance", "setting": "yeast gene YNL259C", "result": 4.5}, {"measurement": "The level of expressed mRNA in the presence of chemical substance/The level of expressed mRNA in the absence of chemical substance", "setting": "yeast gene YOL158C", "result": 4.0}, {"measurement": "The level of expressed mRNA in the presence of chemical substance/The level of expressed mRNA in the absence of chemical substance", "setting": "yeast gene YOR031W", "result": 1.7}, {"measurement": "The level of expressed mRNA in the presence of chemical substance/The level of expressed mRNA in the absence of chemical substance", "setting": "yeast gene YOR153W", "result": 0.9}, {"measurement": "The level of expressed mRNA in the presence of chemical substance/The level of expressed mRNA in the absence of chemical substance", "setting": "yeast gene YOR247W", "result": 0.6}, {"measurement": "The level of expressed mRNA in the presence of chemical substance/The level of expressed mRNA in the absence of chemical substance", "setting": "yeast gene YOR251C", "result": 1.0}, {"measurement": "The level of expressed mRNA in the presence of chemical substance/The level of expressed mRNA in the absence of chemical substance", "setting": "yeast gene YOR273C", "result": 1.0}, {"measurement": "The level of expressed mRNA in the presence of chemical substance/The level of expressed mRNA in the absence of chemical substance", "setting": "yeast gene YPL163C", "result": 0.7}, {"measurement": "The level of expressed mRNA in the presence of chemical substance/The level of expressed mRNA in the absence of chemical substance", "setting": "yeast gene YPR200C", "result": 1.7}]}
